In ChEMBL document CHEMBL1201862, “PubChem BioAssay data set” (2004):
Active and inactive are the calls of the source.

Key:
CAAX prenyl protease 2 [1] = biological target: T1, CAAX prenyl protease 2 (Homo sapiens, UniProt Q9Y256); assay: inhibition of Ras-converting CAAX protease Rce1 – biochemical, yeast membranes, quenched-peptide fluorescence, cherry-pick, dose response (AID 588849)
T1 sequence (Q9Y256 whole entry): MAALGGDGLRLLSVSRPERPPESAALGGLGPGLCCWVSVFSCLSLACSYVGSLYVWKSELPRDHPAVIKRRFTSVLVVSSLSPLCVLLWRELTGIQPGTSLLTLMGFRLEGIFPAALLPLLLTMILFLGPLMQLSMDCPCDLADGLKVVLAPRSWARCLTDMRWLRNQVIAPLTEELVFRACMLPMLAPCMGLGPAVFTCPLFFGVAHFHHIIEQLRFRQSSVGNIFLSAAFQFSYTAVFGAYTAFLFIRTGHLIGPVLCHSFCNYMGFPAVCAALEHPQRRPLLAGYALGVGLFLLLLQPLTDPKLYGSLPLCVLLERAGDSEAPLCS

CAAX prenyl protease 2 [2] = biological target: T2, CAAX prenyl protease 2 (Saccharomyces cerevisiae S288c, UniProt Q03530); type: biochemical
T2 sequence (Q03530 whole entry): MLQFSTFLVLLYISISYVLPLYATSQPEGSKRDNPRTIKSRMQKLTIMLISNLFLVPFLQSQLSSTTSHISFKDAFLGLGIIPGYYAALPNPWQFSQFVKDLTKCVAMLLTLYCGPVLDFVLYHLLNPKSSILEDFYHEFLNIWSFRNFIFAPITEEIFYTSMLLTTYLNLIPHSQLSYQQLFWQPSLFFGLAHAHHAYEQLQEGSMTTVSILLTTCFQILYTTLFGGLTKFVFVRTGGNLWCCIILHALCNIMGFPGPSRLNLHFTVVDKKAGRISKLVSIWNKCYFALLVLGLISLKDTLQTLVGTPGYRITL

INS1 = assay: INS-1E survival protection against cytokine death – cell-based, luminescence, retest, dose response (AID 449756); type: functional; details: Rattus norvegicus;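 further: cell death triggered by IL-1 beta plus TNF-alpha plus IFN-gamma mixture; protective hits raise ATP signal compared with cytokine alone wells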
[3] = MIN6 cell viability loss – mouse insulinoma, cytotoxicity control, dose response (AID 2122); type: functional;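 further: confirmatory high-throughput counterscreen run to flag cytotoxic compounds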
[4] = decrease of insulin promoter-GFP reporter – imaging, high-content screening, mouse beta cells (AID 1628); type: functional; details: MIN6
[5] = biological target: Delta-type opioid receptor (Homo sapiens, UniProt P41143); assay: Counterscreen for agonists of heterodimerization of the mu 1 (OPRM1) and delta 1 (OPRD1) opioid receptors: Luminescence-based cell-based high throughput dose response assay to identify agonists of OPRD1 homodimerization. [Related pubchem assays (depositor defined):AID504326, AID504355, AID504692, AID504904, AID504905]; type: functional
[6] = biological target: T3, Short transient receptor potential channel 4 (Mus musculus, UniProt Q9QUQ5); assay: calcium entry via TRPC4 opening agents – cell-based, HEK293 TRPC4/mu-opioid, Fluo-4 calcium, dose response (AID 434937); type: functional
T3 sequence (Q9QUQ5 whole entry): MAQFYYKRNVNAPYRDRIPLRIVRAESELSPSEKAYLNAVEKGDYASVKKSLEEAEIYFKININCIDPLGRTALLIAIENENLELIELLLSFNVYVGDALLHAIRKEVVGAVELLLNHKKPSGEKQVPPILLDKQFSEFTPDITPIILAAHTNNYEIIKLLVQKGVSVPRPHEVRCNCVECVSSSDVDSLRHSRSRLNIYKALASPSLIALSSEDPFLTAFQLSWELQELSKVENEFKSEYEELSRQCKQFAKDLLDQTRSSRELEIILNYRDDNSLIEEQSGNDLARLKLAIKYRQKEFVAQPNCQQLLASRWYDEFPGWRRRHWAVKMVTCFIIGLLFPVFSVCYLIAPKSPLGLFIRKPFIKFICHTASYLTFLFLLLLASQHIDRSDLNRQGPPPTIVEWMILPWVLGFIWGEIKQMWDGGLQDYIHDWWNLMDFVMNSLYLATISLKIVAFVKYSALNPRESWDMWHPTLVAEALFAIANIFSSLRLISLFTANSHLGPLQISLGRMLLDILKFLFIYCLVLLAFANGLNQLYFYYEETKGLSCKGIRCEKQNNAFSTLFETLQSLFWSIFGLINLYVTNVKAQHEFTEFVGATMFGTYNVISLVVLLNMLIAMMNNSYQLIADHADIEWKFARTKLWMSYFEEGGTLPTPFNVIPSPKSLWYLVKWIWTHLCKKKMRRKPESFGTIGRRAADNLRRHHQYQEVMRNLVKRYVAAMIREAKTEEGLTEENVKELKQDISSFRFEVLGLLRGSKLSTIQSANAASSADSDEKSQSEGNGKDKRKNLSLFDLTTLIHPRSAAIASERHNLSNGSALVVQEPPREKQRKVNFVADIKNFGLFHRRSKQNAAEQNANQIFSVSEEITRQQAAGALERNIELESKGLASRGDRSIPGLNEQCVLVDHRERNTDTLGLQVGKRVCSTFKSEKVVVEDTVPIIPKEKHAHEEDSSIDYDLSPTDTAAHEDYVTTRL

[7] = biological target: 5-hydroxytryptamine receptor 5A (Homo sapiens, UniProt P47898); assay: Counterscreen for agonists of OPRM1-OPRD1 heterodimerization: luminescence-based cell-based high throughput dose response assay to identify agonists of 5-hydroxytryptamine (serotonin) 5A receptor (HTR5A). [Related pubchem assays (depositor defined):AID504326, AID504355, AID504692, AID504904, AID504905]; type: functional
Mu-type opioid receptor = Mu-type opioid receptor (Homo sapiens, UniProt P35372); assay: Counterscreen for agonists of heterodimerization of the mu 1 (OPRM1) and delta 1 (OPRD1) opioid receptors: Luminescence-based cell-based high throughput dose response assay to identify agonists of OPRM1 homodimerization.; type: functional;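 further: U2OS cells expressing OPRM1 and beta-arrestin as split beta-galactosidase partners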
Escherichia coli = assay: microbe, parasite or virus in culture
A-375 [8] = assay: MITF: Counter assay: A375 proliferation Measured in Cell-Based System Using Plate Reader - 2084-03_Inhibitor_Dose_DryPowder_Activity. [Related pubchem assays (depositor defined):AID488944]; type: functional; details: Homo sapiens
Trypsin = Trypsin (Sus scrofa, UniProt P00761); assay: trypsin protease activity blockade – biochemical, quenched peptide fluorescence, cherry-pick, selectivity assay for Rce1 protease inhibitor project, dose response (AID 488789)
[9] = NIH-3T3 fibroblast cytotoxicity, dose response, cytotoxicity control, cell-based, fluorescence, Alamar Blue, secondary assay (AID 2327); type: functional;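 further: NIH-3T3 mouse fibroblasts cultured with fluconazole at 8 µg/mL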
cells = type: functional, cell-based; details: HEK-CNG
[10] = biological target: T4, Microphthalmia-associated transcription factor (Homo sapiens, UniProt O75030); assay: reducers of TRPM1 reporter luminescence, concentration series – cell-based, SK-MEL-5, cherry-picked, set 3, MITF inhibitor project, dose response (AID 493073); type: functional;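 further: SK-MEL-5 melanoma cells with luciferase driven by the MITF target TRPM1 promoter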
T4 sequence (O75030 whole entry): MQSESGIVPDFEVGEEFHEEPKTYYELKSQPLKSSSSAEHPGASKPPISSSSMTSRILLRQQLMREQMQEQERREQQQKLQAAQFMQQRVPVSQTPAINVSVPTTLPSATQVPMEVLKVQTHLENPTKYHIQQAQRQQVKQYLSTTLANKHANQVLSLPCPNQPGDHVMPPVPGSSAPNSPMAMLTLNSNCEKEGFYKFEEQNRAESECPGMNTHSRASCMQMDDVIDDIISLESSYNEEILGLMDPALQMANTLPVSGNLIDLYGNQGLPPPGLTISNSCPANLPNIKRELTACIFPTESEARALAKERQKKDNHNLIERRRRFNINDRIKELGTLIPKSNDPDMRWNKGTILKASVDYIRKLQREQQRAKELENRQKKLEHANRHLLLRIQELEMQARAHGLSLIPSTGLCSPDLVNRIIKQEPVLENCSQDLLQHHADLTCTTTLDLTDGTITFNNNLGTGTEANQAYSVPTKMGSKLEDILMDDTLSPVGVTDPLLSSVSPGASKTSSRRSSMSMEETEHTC

Galanin receptor type 3 = biological target: T5, Galanin receptor type 3 (Homo sapiens, UniProt O60755); assay: Fluorescence-based cell-based primary high throughput dose response assay to identify antagonists of the Galanin Receptor 3 (GalR3).; type: functional
T5 sequence (O60755 whole entry): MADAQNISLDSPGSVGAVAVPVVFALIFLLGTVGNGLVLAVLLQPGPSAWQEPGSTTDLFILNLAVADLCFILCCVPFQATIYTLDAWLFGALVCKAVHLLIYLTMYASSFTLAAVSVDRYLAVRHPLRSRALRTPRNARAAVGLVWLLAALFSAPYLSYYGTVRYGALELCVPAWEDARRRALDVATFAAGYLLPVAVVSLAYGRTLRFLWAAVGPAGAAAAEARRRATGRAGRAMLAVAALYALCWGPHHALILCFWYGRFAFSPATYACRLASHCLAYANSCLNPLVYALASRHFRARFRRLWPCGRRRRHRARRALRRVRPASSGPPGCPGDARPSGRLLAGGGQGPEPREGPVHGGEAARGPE

[11] = fluconazole-exposed Candida albicans growth modulators – fluorescence, retest, confirmation (AID 2467); type: functional, cell-based
A-375 [12] = assay: proliferation inhibition in MITF-low A375 cells – cell-based, cherry-pick samples, set 2, counter-screen for MITF modulator project, dose response (AID 540335); type: functional; details: Homo sapiens
Aminopeptidase N = biological target: T6, Aminopeptidase N (Plasmodium falciparum FcB1/Columbia, UniProt O96935); assay: malaria alanyl aminopeptidase activity blockers – biochemical, fluorogenic H-Leu-NHMec substrate, 1536-well (AID 1445); parameters: species or system Plasmodium falciparum 3D7, 3D7
T6 sequence (O96935 whole entry): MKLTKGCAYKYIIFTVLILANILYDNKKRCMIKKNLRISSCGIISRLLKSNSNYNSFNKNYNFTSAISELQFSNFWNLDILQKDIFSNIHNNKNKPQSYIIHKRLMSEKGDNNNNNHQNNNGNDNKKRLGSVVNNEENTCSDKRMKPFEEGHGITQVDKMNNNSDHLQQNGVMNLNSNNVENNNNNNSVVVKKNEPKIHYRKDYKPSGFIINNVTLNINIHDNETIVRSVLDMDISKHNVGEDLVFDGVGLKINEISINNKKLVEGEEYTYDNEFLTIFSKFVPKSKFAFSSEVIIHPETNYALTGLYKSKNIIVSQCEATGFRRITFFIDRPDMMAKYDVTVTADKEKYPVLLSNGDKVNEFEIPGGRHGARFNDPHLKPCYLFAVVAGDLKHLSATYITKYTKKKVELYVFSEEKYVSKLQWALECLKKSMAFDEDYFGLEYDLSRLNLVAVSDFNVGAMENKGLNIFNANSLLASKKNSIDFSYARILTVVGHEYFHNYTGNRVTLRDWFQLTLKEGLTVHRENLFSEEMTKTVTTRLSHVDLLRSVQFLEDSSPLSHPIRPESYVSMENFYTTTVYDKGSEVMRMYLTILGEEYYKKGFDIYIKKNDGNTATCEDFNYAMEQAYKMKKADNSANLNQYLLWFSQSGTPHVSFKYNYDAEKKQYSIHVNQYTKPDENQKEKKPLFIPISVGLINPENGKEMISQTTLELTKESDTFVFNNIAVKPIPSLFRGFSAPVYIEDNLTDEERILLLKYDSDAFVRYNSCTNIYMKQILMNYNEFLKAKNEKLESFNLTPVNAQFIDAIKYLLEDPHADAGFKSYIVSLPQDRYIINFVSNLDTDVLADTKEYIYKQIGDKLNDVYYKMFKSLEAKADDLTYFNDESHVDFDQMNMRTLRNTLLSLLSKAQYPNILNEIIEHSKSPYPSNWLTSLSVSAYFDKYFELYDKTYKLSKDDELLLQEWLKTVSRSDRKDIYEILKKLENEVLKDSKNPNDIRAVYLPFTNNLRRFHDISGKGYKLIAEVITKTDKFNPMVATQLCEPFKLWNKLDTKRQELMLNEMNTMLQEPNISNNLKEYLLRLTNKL

Mu-type opioid receptor, sequence (P35372 whole entry): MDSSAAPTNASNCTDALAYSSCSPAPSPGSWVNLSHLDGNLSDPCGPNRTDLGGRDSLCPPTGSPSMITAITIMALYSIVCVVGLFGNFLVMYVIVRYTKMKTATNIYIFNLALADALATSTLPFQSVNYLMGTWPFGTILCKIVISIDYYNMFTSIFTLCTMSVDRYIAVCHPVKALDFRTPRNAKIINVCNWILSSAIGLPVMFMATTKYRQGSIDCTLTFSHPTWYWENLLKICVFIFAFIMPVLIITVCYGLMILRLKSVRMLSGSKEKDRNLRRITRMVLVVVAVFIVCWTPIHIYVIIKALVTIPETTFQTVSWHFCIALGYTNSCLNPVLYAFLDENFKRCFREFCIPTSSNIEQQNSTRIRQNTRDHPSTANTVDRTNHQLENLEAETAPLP
5-hydroxytryptamine receptor 5A, sequence (P47898 whole entry): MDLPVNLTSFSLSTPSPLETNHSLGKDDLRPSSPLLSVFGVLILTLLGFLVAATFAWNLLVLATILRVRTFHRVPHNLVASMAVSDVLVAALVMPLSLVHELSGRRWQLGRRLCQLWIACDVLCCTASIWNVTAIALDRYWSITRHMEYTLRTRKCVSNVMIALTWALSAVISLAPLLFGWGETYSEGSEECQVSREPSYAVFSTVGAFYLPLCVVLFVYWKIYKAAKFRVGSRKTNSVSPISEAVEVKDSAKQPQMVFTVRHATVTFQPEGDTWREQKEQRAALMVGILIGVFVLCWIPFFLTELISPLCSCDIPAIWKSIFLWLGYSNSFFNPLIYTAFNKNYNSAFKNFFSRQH
Delta-type opioid receptor, sequence (P41143 whole entry): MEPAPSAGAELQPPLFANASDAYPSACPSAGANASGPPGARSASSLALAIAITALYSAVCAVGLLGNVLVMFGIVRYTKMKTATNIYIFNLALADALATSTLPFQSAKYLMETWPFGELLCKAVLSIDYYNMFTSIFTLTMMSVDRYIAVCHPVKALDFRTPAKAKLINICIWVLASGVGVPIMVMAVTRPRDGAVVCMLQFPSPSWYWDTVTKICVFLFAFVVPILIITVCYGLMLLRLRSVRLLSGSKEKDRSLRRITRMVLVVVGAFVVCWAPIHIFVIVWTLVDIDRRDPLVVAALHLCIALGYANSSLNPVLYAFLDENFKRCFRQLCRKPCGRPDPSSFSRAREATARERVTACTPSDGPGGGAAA
Trypsin, sequence (P00761 whole entry): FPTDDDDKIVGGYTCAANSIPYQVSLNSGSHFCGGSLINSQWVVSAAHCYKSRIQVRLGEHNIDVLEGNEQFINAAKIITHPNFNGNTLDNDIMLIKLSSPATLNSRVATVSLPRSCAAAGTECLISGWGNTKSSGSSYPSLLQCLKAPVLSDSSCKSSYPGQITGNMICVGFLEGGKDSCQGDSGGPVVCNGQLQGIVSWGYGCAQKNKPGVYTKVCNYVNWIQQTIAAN

With `CN(C)c1ccc(/C=N/NC(=O)CNC(=O)c2ccco2)cc1` the AC50 (CAAX prenyl protease 2 [1]) was 5.17 µM (active) and the AC50 (CAAX prenyl protease 2 [2]) was 7.99 µM (active).

For `Cn1cc(CNCc2ccc(OC(F)(F)F)cc2)c(-c2ccc3c(c2)OCCO3)n1`, the AC50 (INS1) was 1.04 µM (active), the IC50 [3] was < 0.25 µM (active) and the IC50 [4] was 0.272 µM (active).

With `CC(=O)NC(CC(=O)NCC(c1ccco1)N(C)C)c1ccccc1` (centres undefined) the EC50 [5] was 31 µM (inactive), the EC50 [6] was 0.0533 µM (active) and the EC50 [7] was > 92.5 µM (inactive). The EC50 (Mu-type opioid receptor) was > 92.5 µM (inactive).

In the case of `Cc1nn(Cc2ccccc2)c(C)c1C(=O)NCc1ccccc1`, the AC50 (Escherichia coli) is reported as 42.7 µM (active).

In the case of `CCOC(=O)C1(Cc2ccccc2)CCN(Cc2cccn2-c2nccs2)CC1`, the EC50 [5] is reported as > 92.5 µM (inactive), the EC50 [7] is reported as > 92.5 µM (inactive) and the EC50 (Mu-type opioid receptor) is reported as > 92.5 µM (inactive).

For `COc1ccc(-c2nc3n(c2C)Cc2ccccc2-3)cc1`, the AC50 (A-375 [8]) was 30.1 µM (active).

For `CC1(c2ccncc2)Nc2ccccc2-c2nc3ccccc3n21` (centres undefined), the AC50 (Trypsin) was 9.63 µM (active) and the AC50 (CAAX prenyl protease 2 [2]) was 68 µM (active).

With `CC(C)(C)c1ccc(-c2c[n+](-c3ccc(Br)cc3)c3n2CCCS3)cc1` the EC50 [9] was > 160 µM (inactive), the EC50 (cells) was > 29.9 µM (inactive) and the AC50 [10] was 3.2 µM (active). The IC50 (Galanin receptor type 3) was 10.1 µM (inactive), the EC50 [11] was 0.199 µM (active) and the AC50 (A-375 [12]) was 34.1 µM (active).

With `O=C(Nc1ccccc1)c1ccc(NC2CCCCC2)c(S(=O)(=O)N2CCOCC2)c1` the EC50 [5] was > 92.5 µM (inactive), the EC50 [7] was > 92.5 µM (inactive) and the EC50 (Mu-type opioid receptor) was > 92.5 µM (inactive).

In the case of `CC(C)(C)c1ccc(C(=O)O)c(C(=O)c2ccc(C(=O)O)cc2)c1`, the AC50 (Escherichia coli) is reported as 49.3 µM (active).

For `COc1ccc(/C=N/NC(=O)c2[nH]c3ccc(Br)cc3c2-c2ccccc2)c(C(=O)O)c1OC`, the IC50 (Aminopeptidase N) was 65.3 µM (active).

With `CN(C)CCCN(C(=O)c1ccc(Cl)s1)c1nc2cc3c(cc2s1)OCO3` the EC50 [6] was 5.96 µM (active), the AC50 [10] was 22.9 µM (active) and the AC50 (A-375 [8]) was > 11 µM (active). For the same molecule, the AC50 (A-375 [12]) was > 11 µM (active).

In the case of `CN(c1ccccc1)c1ccc(/C=N/NC(=O)CC#N)cc1`, the AC50 (CAAX prenyl protease 2 [1]) is reported as 2.64 µM (active), the AC50 (Trypsin) is reported as 5.99 µM (active) and the AC50 (CAAX prenyl protease 2 [2]) is reported as 6.98 µM (active).
